Assay results from patent US20210023029A1, “EDASALONEXENT DOSING REGIMEN FOR TREATING MUSCULAR DYSTROPHY” (Catabasis Pharmaceuticals, Inc., priority 2017, published 2021).
“Also recorded” adds a separate entry of the source. Like-named read-outs stand apart in the source and are kept apart here.

Assays:
[1] = Edasalonexent dosing regimen pharmacokinetics in C57BL/6 mice (diet or oral gavage, LC/MS/MS); assay type: in vivo; details: for AUC / Cmax / Tmax / AUC(0-t): C57BL/6, mouse; for AUC(0-t): read-out: AUC0-24 h, day 3 (±SE)
Method: C57BL/6 mice were administered edasalonexent in their diet and/or by oral gavage. Pharmacokinetic (PK) modeling was used to identify suitable dosing amounts and timing in relation to the doses of 67 mg/kg/day and 100 mg/kg/day that have been tested in edasalonexent human clinical trials. Specifically, mice were administered 1.5% edasalonexent in their diet, 450 mg/kg/day delivered orally as single daily dose, 450 mg/kg/day delivered orally as three equally divided doses, or 600 mg/kg/day delivered orally as two 150 mg/kg/doses and one 300 mg/kg/dose. For dosing regimens with three daily doses, doses were delivered at 7:00 am, noon and 5:00 pm.
The dosing regimens for each group are depicted in TABLE 1. Each group included 12 mice.
For animals administered edasalonexent in their diet, edasalonexent concentration was measured by LC/MS/MS every 4 hours for 24 hours, beginning on the seventh day of dosing. For animals administered edasalonexent orally, edasalonexent concentration was measured by LC/MS/MS at 0.25, 0.5, 1, 2, 4, 6 and 24 hours after dosing, beginning on the third day of dosing.

[2] = system: NF-κB regulated and inflammation-related gene transcripts; assay: MoveDMD trial: NF-κB regulated and inflammation-related gene transcripts in whole blood (RNA sequencing); assay type: in vivo, human; details: one week treatment
Method: To determine the effects of a given edasalonexent dosing regimen on NF-κB inhibition, the expression levels of a number of NF-κB regulated and inflammation-related gene transcripts were measured in whole blood samples from DMD patients.
NF-kB regulated and inflammation-related genes were chosen from the Broad Institute's HALLMARK TNF/NF-kB gene set (Liberzon, et. al., (2015), Cell Systems, 1(6):417-425). Blood was drawn from DMD boys before and one-week after edasalonexent treatment, and collected into PAXgene RNA tubes (Qiagen). RNA was extracted and sequenced to directly measure the abundance of transcripts in whole blood for both time points in each patient, and the abundance of transcripts one-week post treatment was compared to pre-treatment values to determine the relative change in each of the selected transcripts. This ratio for each gene across all patients within a dose cohort was averaged and is shown in FIG. 12 by columns as average +/−SEM. A value less than 1 indicates a decrease in the transcripts after one-week treatment with edasalonexent.

boys with DMD = assay: MoveDMD trial: NSAA and timed function tests in boys with DMD; assay type: in vivo, human
Method: The MoveDMD trial (see FIG. 10) was designed to evaluate efficacy, safety/tolerability, pharmacokinetics (PK), pharmacodynamics (PD), and dose response of edasalonexent. The first phase portion of the MoveDMD trial was a 1-week study to evaluate the safety, PK, and PD at 33 and 67 mg/kg/day, given in 2 divided doses, and 100 mg/kg/day given in 3 divided doses. The second phase and the open-label extension (OLE) portions of the MoveDMD trial enrolled boys ages 4 through 7 with DMD. Phase 2 was a 12-week placebo-controlled study with two cohorts given 33 mg/kg twice daily (BID; 67 mg/kg/day; n=10) or 33 mg/kg three times daily (TID; 100 mg/kg/day; n=10), and a placebo cohort (n=10). Patients in the OLE continued with either dose regimen of edasalonexent. The North Star Ambulatory Assessment (NSAA) is a validated functional scale specifically designed for ambulant boys with DMD and measures overall function in young boys. […] The 10-meter walk/run, 4-stair climb, and time to stand are all timed tests used as a measure of function in boys with DMD. In each of these tests, as shown in FIGS. 15-17, the average rate of change of speed by study subjects in completing these physical tasks stabilized during the 60 week 100 mg/kg/day edasalonexent treatment period as compared with the rate of change during the off-treatment control period (36 weeks preceding the treatment period). All timed function test values stabilized during the treatment period.

NF-κB = details: cited from earlier work
[3] = gastrocnemius, 1.5% edasalonexent in diet (group 1)
[4] = 100 mg/kg/day, 60 weeks, compared to 36 week off-treatment control period

AUC ([1]; po, 1.5 % in diet, gastrocnemius, 1.5% edasalonexent in diet (group 1)): 7620 ng·h/mL | Cmax ([1]; po, 1.5 % in diet, gastrocnemius, 1.5% edasalonexent in diet (group 1), read-out: Cmax): 532 ng/mL | AUC ([1]; po, 1.5 % in diet, plasma, 1.5% edasalonexent in diet (group 1)): 524 ng·h/mL | Cmax ([1]; po, 1.5 % in diet, plasma, 1.5% edasalonexent in diet (group 1), read-out: Cmax): 44.6 ng/mL | Tmax ([1]; plasma, group 2, oral QD 450 mg/kg/dose, day 3): 30 min | Cmax ([1]; plasma, group 2, oral QD 450 mg/kg/dose, day 3, read-out: Cmax (±SE)): 604 ± 83.3 ng/mL | AUC(0-t) ([1]; plasma, group 2, oral QD 450 mg/kg/dose): 1320 ng·h/mL | Tmax ([1]; plasma, group 3, oral TID 150 mg/kg/dose = 450 mg/kg/day, day 3): 30 min | Cmax ([1]; plasma, group 3, oral TID 150 mg/kg/dose = 450 mg/kg/day, day 3, read-out: Cmax (±SE)): 452 ± 47.6 ng/mL | AUC(0-t) ([1]; plasma, group 3, oral TID 150 mg/kg/dose = 450 mg/kg/day): 1360 ± 211 ng·h/mL | Tmax ([1]; plasma, group 4, oral TID 150/150/300 mg/kg/dose = 600 mg/kg/day, day 3): 30 min | Cmax ([1]; plasma, group 4, oral TID 150/150/300 mg/kg/dose = 600 mg/kg/day, day 3, read-out: Cmax (±SE)): 278 ± 46.3 ng/mL | AUC(0-t) ([1]; plasma, group 4, oral TID 150/150/300 mg/kg/dose = 600 mg/kg/day): 2270 ± 587 ng·h/mL | Cmean [1, 3]: 332.8 ng/mL | Cmin [1, 3]: 149.4 ng/mL | AUC of single daily 450 mg/kg dose relative to edasalonexent in diet ([1]; group 2 (450 mg/kg QD) versus group 1 (1.5% in diet), plasma): ~2.5 fold | Cmin ([1]; plasma, 1.5% edasalonexent in diet (group 1)): 10.7 ng/mL | Cmean ([1]; plasma, 1.5% edasalonexent in diet (group 1), from seventh day of dosing): 22.4 ng/mL
Compound: CC/C=C\C/C=C\C/C=C\C/C=C\C/C=C\C/C=C\CCC(=O)NCCNC(=O)c1ccccc1O [edasalonexent, N-(2-[(4Z,7Z,10Z,13Z,16Z,19Z)-docosa-4,7,10,13,16,19-hexaenamido]ethyl)-2-hydroxybenzamide]
change in 24 NF-κB regulated and inflammation-related gene transcripts, Day 7 versus Day 1 ([2]; 33 mg/kg/day): decreases were generally not noted | change in 24 NF-κB regulated and inflammation-related gene transcripts, Day 7 versus Day 1 ([2]; 67 mg/kg/day): not so pronounced | change in 24 NF-κB regulated and inflammation-related gene transcripts, Day 7 versus Day 1 ([2]; 100 mg/kg/day): statistically significant decrease in all 24 transcripts; also recorded: most effective | muscle function and DMD disease progression (boys with DMD; 33 mg/kg TID (100 mg/kg/day), 60 weeks, compared to off-treatment control period): clinically meaningful slowing of disease progression; also recorded: preservation of muscle function and slowing of DMD disease progression | efficacy compared to the 133 mg/kg/day dosing regimen (boys with DMD; 100 mg/kg/day versus 133 mg/kg/day (33/33/67 mg/kg)): equally effective | 4-stair climb, average rate of change of speed (boys with DMD; [4]): stabilized | 10-meter walk/run, average rate of change of speed (boys with DMD; [4]): stabilized | North Star Ambulatory Assessment (NSAA) score, rate of change (boys with DMD; [4]): stabilized | time to stand, average rate of change of speed (boys with DMD; [4]): stabilized | treatment effects (boys with DMD; boys affected by DMD enrolled at age 4-7, MoveDMD phase 2 trial and open-label extension): positive treatment effects | expression of NF-κB driven genes in whole blood (NF-κB; adult study, dose of approximately 100 mg/kg/day): changes in expression of NF-κB driven genes were observed | levels of the p65 subunit of NF-κB (NF-κB; healthy adult humans, compared to placebo or salicylate and omega-3 DHA as separate molecules): lowers levels of the p65 subunit of NF-κB | biomarkers of inflammation in whole blood (NF-κB; humans): decrease of biomarkers of inflammation | activated NF-κB pathways (NF-κB; phase 1 clinical program in adults (Donovan et al. 2017)): inhibited activated NF-κB pathways | safety and tolerability (NF-κB; phase 1 clinical program, three placebo-controlled studies in adults (Donovan et al. 2017)): safe and well-tolerated
